We go through 36 sequences from the OligoGym collection.

After the bases stand the sugars from the 5' end (letter, count) and the backbone: PS all phosphorothioate, else s phosphorothioate and o phosphodiester by linkage. Methylation of C is not given here. e = 2'-O-(2-methoxyethyl) (MOE); k = constrained ethyl (cEt); d = 2'-deoxy (DNA); m = 2'-O-methyl

For one data set, the target named is HSD17B13. The note with it: ASO, HepaRG, 0.02 µM.
Consider ACTGGATGGATTTCTC (sugars k3 d10 k3, PS), for which the target mRNA inhibition was found to be 9%.

The data set is the same for the next values; noted with them: ASO, HepaRG, 0.078 µM.
On to ACTGGATGGATTTCTC (sugars k3 d10 k3, PS), for which the target mRNA inhibition was 20%.

The data set is the same for the next values; noted with them: ASO, HepaRG, 0.313 µM.
With ACTGGATGGATTTCTC (sugars k3 d10 k3, PS), the target mRNA inhibition came to 45%.

The data set is the same for the next values; noted with them: ASO, HepaRG, 1 µM.
On to “ACATUGCAGTTATTAG (sugars k3 d1 m1 d8 k3, PS)”, for which the target mRNA inhibition was determined as 26%.

In the case of “ACCAAACTTCCAGCAG (sugars k3 d9 k3 e1, PS)”, the target mRNA inhibition is 36%.

The sequence ACCAAGAGGGTTTTTA (sugars k3 d10 k3, PS) came in with a target mRNA inhibition of 7%.

ACCCTTAACAAACCTC (sugars k3 d10 k3, PS) had a target mRNA inhibition of 36%.

As to ACCGCGCTTATTAATA (sugars k3 d10 k3, PS), the target mRNA inhibition came out at 4%.

As to ACCTAATAACTACATG (sugars k3 d10 k3, PS), the target mRNA inhibition came to 0%.

As for ACCTCTAAGTTAGCCC (sugars k3 d10 k3, PS), the target mRNA inhibition stood at 28%.

In turn, ACGAAGCCTGAATGCC (sugars k3 d10 k3, PS) gave a target mRNA inhibition of 52%.

Take ACGACTCCAAGTAGGA (sugars k3 d10 k3, PS): the target mRNA inhibition stood at 24%.

In the case of ACGACTTCATCTGTCT (sugars k3 d10 k3, PS), the target mRNA inhibition was found to be 8%.

For the sequence ACGATGTGGCCATGAT (sugars k3 d10 k3, PS), the target mRNA inhibition is 52%.

“ACGGTGATCAAATGTA (sugars k3 d9 k3 e1, PS)” yielded a target mRNA inhibition of 41%.

“ACGGUGATCAAATGTA (sugars k3 d1 m1 d8 k3, PS)” yielded a target mRNA inhibition of 18%.

Sequence ACTAACCAATTATATG (sugars k3 d10 k3, PS) gave a target mRNA inhibition of 6%.

ACTATCAGAACAGTTC (sugars k3 d10 k3, PS): the target mRNA inhibition stood at 62%.

Turning to ACTCCAAGTAGGAGTA (sugars k3 d10 k3, PS), the target mRNA inhibition stood at 0%.

ACTCTATAATAAGGTA (sugars k3 d10 k3, PS) returned a target mRNA inhibition of 42%.

Take ACTGATACATACCACT (sugars k3 d10 k3, PS): the target mRNA inhibition worked out at 52%.

“ACTGCTGCTAGTGCCA (sugars k3 d1 m1 d8 k3, PS)” displayed a target mRNA inhibition of 64%.

Take ACTGCTGCTAGTGCCA (sugars k3 d10 k3, PS): the target mRNA inhibition stood at 47%.

Sequence ACTGGATGGATTTCTC (sugars k3 d10 k3, PS) came in with a target mRNA inhibition of 83%.

The sequence ACTTACCAATATGGGA (sugars k3 d10 k3, PS) gave a target mRNA inhibition of 0%.

As for ACTTCACCAACGACTC (sugars k3 d10 k3, PS), the target mRNA inhibition came to 15%.

With ACTTGAACAGTCTTAA (sugars k3 d10 k3, PS), the target mRNA inhibition amounted to 63%.

As for “ACTTGATCTCTTAGCT (sugars k3 d1 m1 d8 k3, PS)”, the target mRNA inhibition came out at 39%.

As for “ACTTGATCTCTTAGCT (sugars kkdddddddddkekek, PS)”, the target mRNA inhibition turned out to be 62%.

In turn, AGAAAGTTCATTCGAA (sugars k3 d10 k3, PS) came in with a target mRNA inhibition of 61%.

In turn, “AGAAATTCACCTTGAC (sugars k3 d1 m1 d8 k3, PS)” came in with a target mRNA inhibition of 9%.

“AGAAATTCACCTTGAC (sugars k3 d9 k3 e1, PS)” showed a target mRNA inhibition of 7%.

In turn, AGAAATTCACCTTGAC (sugars k3 d10 k3, PS) yielded a target mRNA inhibition of 39%.

In the case of “AGAAATTCACCTTGAC (sugars kkdddddddddkekek, PS)”, the target mRNA inhibition was found to be 33%.

AGAAGATATTATCAGC (sugars k3 d10 k3, PS) yielded a target mRNA inhibition of 64%.

The sequence AGAATACGCTGAGAGT (sugars k3 d10 k3, PS) came in with a target mRNA inhibition of 56%.

AGAATAGGAGAGTCTT (sugars k3 d10 k3, PS): the target mRNA inhibition worked out at 64%.

Take AGACAAGAGTTCTTGC (sugars k3 d10 k3, PS): the target mRNA inhibition amounted to 30%.

AGACAATACAGGATAG (sugars k3 d10 k3, PS) had a target mRNA inhibition of 15%.

Still in this data set, the particulars now being: ASO, HepaRG, 1.25 µM.
With ACTGGATGGATTTCTC (sugars k3 d10 k3, PS), the target mRNA inhibition was 60%.

Still in this data set, the particulars now being: ASO, HepaRG, 5 µM.
ACTGGATGGATTTCTC (sugars k3 d10 k3, PS) showed a target mRNA inhibition of 88%.
